Laboratory results from US7972815B2, “Method of producing sugar chain using human G4 polypeptide” (Kyowa Hakko Kirin Co., Ltd., priority 1999, dated 2011).

Tests used:
Assay type in all cases: biochemical
[1] = target: T1, β1,3-N-acetylglucosaminyl transferase (G7) (Homo sapiens, UniProt Q9C0J1); assay: Substrate specificity of G7 with pyridylaminated oligosaccharides; details: 16 hours; for Relative activity (%): pyridylaminated substrate, 37° C., activity for LNnT defined as 100%
T1 construct: made in house; host or cells: Sf21 insect cells infected with recombinant baculovirus from pVL1393-F2G7
T1 sequence (Q9C0J1 56-378): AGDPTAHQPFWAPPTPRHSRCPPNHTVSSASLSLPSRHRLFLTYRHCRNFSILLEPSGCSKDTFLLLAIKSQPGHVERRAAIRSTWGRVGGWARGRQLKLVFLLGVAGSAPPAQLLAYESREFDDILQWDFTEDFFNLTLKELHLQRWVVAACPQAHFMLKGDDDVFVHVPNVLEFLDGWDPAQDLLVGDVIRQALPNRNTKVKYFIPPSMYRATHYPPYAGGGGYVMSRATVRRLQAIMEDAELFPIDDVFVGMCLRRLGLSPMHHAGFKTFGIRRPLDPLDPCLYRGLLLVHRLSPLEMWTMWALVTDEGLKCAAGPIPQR
Method: (§1) The method shown in Example 8 was used as the activity measuring method. Specifically, after the reaction at 37° C. for 14.5 hours in 30 μl of an assay solution [200 mmol/l of MOPS (pH 7.5), 20 mmol/l of UDP-GlcNAc (SIGMA), 20 mmol/l of MnCl2, 50 μmol/l of pyridylaminated sugar chain substrate and 15 μl of the above eluate], products were detected by HPLC. As substrates, LNnT, lacto-N-tetraose (Galβ1-3GlcNAcβ1-3Galβ1-4Glc, hereinafter referred to as “LNT”), lacto-N-fucopentaose II (Galβ1-3(Fucα1-4)GlcNAcβ1-3Galβ1-4Glc, hereinafter referred to as “LNFP-II”), lacto-N-fucopentaose III (Galβ1-4(Fucα1-3)GlcNAcβ1-3Galβ1-4Glc, hereinafter referred to as “LNFP-III”), lacto-N-fucopentaose V (Galβ1-3GlcNAcβ1-3Galβ1-4(Fucα1-3)Glc, hereinafter referred to as “LNFP-V”) and lacto-N-difucohexaose II (Galβ1-3(Fucα1-4)GlcNAcβ1-3Galβ1-4(Fucα1-3)Glc, hereinafter referred to as “LNDFH-II”) (all manufactured by Oxford Glycosystems) were used after fluorescently labeling them with aminopyridine. Fluorescence labeling of these substrates were carried out in accordance with the usual method [Agric. Biol. Chem., 54, 2169 (1990)].
(§2) For each substrate, the reaction was carried using the assay solution with or without UDP-GlcNAc (sugar donor), and then HPLC was carried out and peaks appeared only in the assay solution containing UDP-GlcNAc were defined as products.
(§3) The assay solution after completion of the reaction was treated at 100° C. for 5 minutes and then centrifuged at 10,000×g for 5 minutes, and a portion (5 μl) of the thus obtained supernatant was applied to HPLC.
(§4) The HPLC was carried out by using TSK-gel ODS-80Ts column (4.6×300 mm; Tosoh); 0.02 mol/l ammonium acetate buffer (pH 4.0) was used as the eluate at an elution temperature of 50° C. and at a flow rate of 0.5 ml/min.
(§5) Products were detected by using a fluorescence spectrum photometer FP-920 (JASCO Corporation) (excitation wavelength 320 nm, radiation wavelength 400 nm).
Examination of the substrate specificity of a β1,3-N-acetylglucosaminyl transferase (G7) was carried out using the FLAG peptide-fused G7 polypeptide purified in Example 17.
Substrate specificity of the FLAG peptide-fused G7 polypeptide was examined by the method shown in Example 11(1). The reaction was carried out at 37° C. for 16 hours.

[2] = target: T2, β1,3-N-acetylglucosaminyl transferase (G3) (Homo sapiens, UniProt Q9NY97); assay: Substrate specificity of G3 with pyridylaminated oligosaccharides; details: 2 hours; for Relative activity (%): pyridylaminated substrate, 37° C., activity on LNnT defined as 100%
T2 construct: made in house; host or cells: Sf21 insect cells infected with recombinant baculovirus from pVL1393-F2G3
T2 sequence (Q9NY97 31-397): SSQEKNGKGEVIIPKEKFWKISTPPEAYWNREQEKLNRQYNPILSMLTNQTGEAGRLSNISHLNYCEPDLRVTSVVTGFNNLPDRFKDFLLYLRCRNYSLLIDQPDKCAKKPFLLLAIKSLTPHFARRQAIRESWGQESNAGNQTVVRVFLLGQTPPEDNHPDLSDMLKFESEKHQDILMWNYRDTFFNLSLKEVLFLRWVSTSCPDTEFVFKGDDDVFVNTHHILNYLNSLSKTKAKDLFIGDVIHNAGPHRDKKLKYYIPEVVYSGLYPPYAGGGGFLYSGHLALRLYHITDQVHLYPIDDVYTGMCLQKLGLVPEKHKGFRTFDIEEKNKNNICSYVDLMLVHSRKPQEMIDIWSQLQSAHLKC
Method: as §1, §2, §3, §4, §5
Substrate specificity of a β1,3-N-acetylglucosaminyl transferase (G3) was examined using the FLAG peptide-fused G3 polypeptide purified in Example 14.
Substrate specificity of the FLAG peptide-fused G3 polypeptide was examined by the method shown in Example 11(1). The reaction was carried out at 37° C. for 2 hours.

[3] = target: T3, β1,3-N-acetylglucosaminyl transferase (G4) (Homo sapiens, UniProt Q9Y2A9, R328H); assay: Substrate specificity of G4 with unlabeled oligosaccharides (HPAE/PAD); details: for Relative activity (%): unlabeled substrate, 37° C., 16 hours, activity on LNnT defined as 100%
T3 construct: made in house; host or cells: Sf21 insect cells infected with recombinant baculovirus from pVL1393-F2G4
T3 sequence (Q9Y2A9 38-372 R328H): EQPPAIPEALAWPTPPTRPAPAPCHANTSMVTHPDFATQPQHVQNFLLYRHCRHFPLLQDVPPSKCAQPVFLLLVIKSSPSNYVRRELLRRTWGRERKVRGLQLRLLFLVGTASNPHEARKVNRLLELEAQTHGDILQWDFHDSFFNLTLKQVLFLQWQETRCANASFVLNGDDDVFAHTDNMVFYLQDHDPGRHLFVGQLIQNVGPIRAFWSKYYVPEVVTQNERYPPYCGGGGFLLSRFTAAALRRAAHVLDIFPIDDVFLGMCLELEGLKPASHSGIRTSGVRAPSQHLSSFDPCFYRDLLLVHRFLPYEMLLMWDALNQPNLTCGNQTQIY
Method: (§6) The reaction using the glycosyltransferase was carried out as follows. The reaction was carried out at 37° C. for 16 hours in 40 μl of an assay solution [50 mmol/l MOPS (pH 7.5), 5 mmol/l UDP-GlcNAc (SIGMA), 5 mmol/l MnCl2, […] and 10 μl of the above eluate]. Next, the reaction solution was treated at 100° C. for 5 minutes and then centrifuged at 10,000×g for 20 minutes to obtain the supernatant, and a portion thereof was analyzed using HPAE/PAD (High Performance Anion Pulsed Amperometoric Detection; manufactured by DIONEX). The specific method was carried out in the usual way [Anal. Biochem., 189, 151 (1990), J. Biol. Chem., 273, 433 (1998)].
(§7) As substrates, the following unlabeled oligosaccharides were used: lactose (Galβ1-4Glc), N-acetyllactosamine (Galβ1-4GlcNAc, hereinafter referred to as “LacNAc” in some cases), LNnT, LNT and lacto-N-neohexaose (Galβ1-4GlcNACβ1-3Galβ1-4GlcNAcβ1-3Galβ1-4Glc, hereinafter referred to as “LNnH”).
as §2
(§8) In identifying the product, coincidence of its elution time with that of a standard sugar chain was used as the index. As the standard sugar chains, GlcNAcβ1-3Galβ1-4Glc, GlcNAcβ1-3Galβ1-4GlcNAc and GlcNAcβ1-3Galβ1-4GlcNAcβ1-3Galβ1-4Glc were used.

[4] = target: T1, β1,3-N-acetylglucosaminyl transferase (G7); assay: Substrate specificity of G7 with unlabeled oligosaccharides; details: 15.5 hours; for Relative activity (%) G7: unlabeled substrate, 37° C., activity for LNnT defined as 100%
Method: as §6, §7, §2, §8
Substrate specificity of the FLAG peptide-fused G7 polypeptide was examined using the method shown in Example 11(2). The enzyme reaction was carried out at 37° C. for 15.5 hours.

[5] = pyridylaminated LNnT as substrate

SMILES	conversion efficiency of the substrate into the product [1, 5] [%]	Relative activity (%) [1] [%]	conversion efficiency of the substrate into the product [2, 5] [%]	Relative activity (%) [2] [%]	conversion ratio of the substrate into the product ([3]; unlabeled LNnT as substrate) [%]	Relative activity (%) [3] [%]	conversion efficiency of the substrate into the product ([4]; unlabeled LNnT as substrate) [%]	Relative activity (%) G7 [4] [%]
CC(=O)N[C@H]1[C@H](O[C@H]2[C@@H](O)[C@@H](CO)O[C@@H](O[C@H]3[C@H](O)[C@@H](O)C(O)O[C@@H]3CO)[C@@H]2O)O[C@H](CO)[C@@H](O[C@@H]2O[C@H](CO)[C@H](O)[C@H](O)[C@H]2O)[C@@H]1O (mixture of isomers) [LNnT, lacto-N-neotetraose]	3.76	100	82.5	100	1.7	100	3.07	100
CC(=O)N[C@H]1[C@H](O[C@H]2[C@@H](O)[C@@H](CO)O[C@@H](O[C@H]3[C@H](O)[C@@H](O)C(O)O[C@@H]3CO)[C@@H]2O)O[C@H](CO)[C@@H](O)[C@@H]1O[C@@H]1O[C@H](CO)[C@H](O)[C@H](O)[C@H]1O (stereo partly drawn) [LNT, lacto-N-tetraose]		7.6		3.7		114		0
